Reference: patent US20260085081A1, “PHOSPHATIDYLAMINE COMPOUNDS INCLUDING A PLURALITY OF TERTIARY AMINO GROUP STRUCTURES AND COMPOSITIONS THEREOF” (PEKING UNIVERSITY, priority 2022, published 2026)

Tests used:
[1] = Summary of the strongest expressions over the administration routes; settings: strongest level of the three administrations
Description: (§1) Finally, the expression levels of lipid nanoparticles with a plurality of tertiary amine groups from the embodiments of the present disclosure after intramuscular injection, white adipocyte administration, and intraperitoneal injection are summarized, and compared with lipid nanoparticles prepared from commercially available cationic lipids MC3 and SM102. […] However, the expression rates of the phosphatidylamine lipids with a plurality of tertiary amine groups from embodiments of the present disclosure are higher than that of SM102.

[2] = tested on: Fluc-mRNA (luciferase expression); experiment: In vivo transfection efficiency of Fluc-mRNA lipid nanoparticles after intramuscular injection; set-up: species or system mice; settings: for Intramuscular injection (PL/MC3) expression strength level: ratio of expression PL/MC3; for in vivo transfection (expression, FIG. 5): weight ratio lipid nanoparticle/RNA 10:1, DOPE or DSPC group; for in vivo transfection (expression, FIG. 5) / expression in vivo compared with control MC3: 3 μg Fluc-mRNA/mouse; for expression in vivo compared with control MC3: DOPE group, weight ratio 10:1
Description: 6 h after intramuscular injection of mRNA LNPs, mice were injected intraperitoneally with 0.2 mL […] (20 mg/mL PBS solution). After 10 min, mice were anesthetized with isoflurane in oxygen in a ventilated anesthesia room and imaged with an imaging system (IVIS, PerkinElmer), and luminescence was quantified using Living Image software (PerkinElmer).

[3] = tested on: white adipocyte; experiment: White adipocyte administration, expression relative to SM102; format: cell-based; settings: for White adipocyte administration (PL/SM102) expression strength level: ratio of expression PL/SM102
Description: as §1

[4] = tested on: adipose tissue; experiment: Intraperitoneal injection of Fluc-mRNA LNPs, expression and distribution; format: in vivo, mice; settings: for Intraperitoneal injection (PL/SM102) expression strength level: ratio of expression PL/SM102; for expression compared with control SM102: intraperitoneal injection
Description: FIG. 10 illustrates the effect of Fluc-mRNA LNPs composed of different structural cationic lipids on the mRNA delivery efficiency after intraperitoneal administration according to some embodiments of the present disclosure. Targeting and expression of PL lipids on adipose tissue after intraperitoneal administration is also evaluated. […] That is to say, the PL lipid structure with the plurality of tertiary amino group structures may enhance the selective targeting of visceral adipocytes. […]
as §1

Structure (SMILES)	Summary of the strongest expressions [1]	Intramuscular injection (PL/MC3) expression strength level [2]	in vivo transfection (expression, FIG. 5) [2]	White adipocyte administration (PL/SM102) expression strength level [3]	Intraperitoneal injection (PL/SM102) expression strength level [4]	expression in vivo compared with control MC3 [2]	expression compared with control SM102 ([3]; white adipocyte administration)	expression compared with control SM102 [4]
CCCCCCCC/C=C\CCOC(=O)CCCOP(=O)(NCCN(CCCCCCCCCCCC)CCCN(C)C)OCCCC(=O)OCC/C=C\CCCCCCCC [PL13]	A (A: ≥2)	A (A: ≥2)	expressed	D (D: <0.1)	–	–	–	–
CCCCC/C=C\C/C=C\CCCCCCCCOP(=O)(NCCCN(CC(O)CCCCCCCCCC)CC(O)CN(CC(O)CCCCCCCCCC)CC(O)CCCCCCCCCC)OCCCCCCCC/C=C\C/C=C\CCCCC (stereo not drawn) [PL19]	C (C: ≥0.1 and <1)	–	–	C (C: ≥0.1 and <1)	D (D: <0.1)	–	–	–
CCCCC/C=C\C/C=C\CCCCCCCCOP(=O)(NCCN1CCN(CCOC(=O)CCN(CCCCCCCCCCCC)CCCCCCCCCCCC)CC1)OCCCCCCCC/C=C\C/C=C\CCCCC [PL26]	A (A: ≥2)	A (A: ≥2)	expressed	C (C: ≥0.1 and <1)	–	better than that of control MC3	–	–
CCCCC/C=C\C/C=C\CCCCCCCCOP(=O)(NCCCN1CCN(CCCN(CCCCCCC(=O)OC(CCCCCCCC)CCCCCCCC)CCCCCCC(=O)OC(CCCCCCCC)CCCCCCCC)CC1)OCCCCCCCC/C=C\C/C=C\CCCCC [PL28]	A (A: ≥2)	A (A: ≥2)	expressed	C (C: ≥0.1 and <1)	–	–	–	–
CCCCC/C=C\C/C=C\CCCCCCCCOP(=O)(NCCCN1CCN(CCCN(CCCCCCC(=O)OC(CC)CCCCCCCC)CCCCCCC(=O)OC(CC)CCCCCCCC)CC1)OCCCCCCCC/C=C\C/C=C\CCCCC (stereo not drawn) [PL29]	A (A: ≥2)	A (A: ≥2)	expressed	B (B: ≥1 and <2)	–	better than that of control MC3	superior to that of the control SM102	–
CCCCC/C=C\C/C=C\CCCCCCCCOP(=O)(NCCCN1CCN(CCCN(CCCCCCCCCCCC)CCCCCCCCCCCC)CC1)OCCCCCCCC(=O)OC(CCCCCCCC)CCCCCCCC (stereo not drawn) [PL30]	A (A: ≥2)	A (A: ≥2)	expressed	D (D: <0.1)	–	better than that of control MC3	–	–
CCCCCCCCCCCCN(CCCCCCCCCCCC)CCCN1CCN(CCCNP(=O)(OCCCCCCCC(=O)OC(CCCCCCCC)CCCCCCCC)OCCCCCCCC(=O)OC(CCCCCCCC)CCCCCCCC)CC1 [PL31]	A (A: ≥2)	A (A: ≥2)	expressed	D (D: <0.1)	–	better than that of control MC3	–	–
CCCCCCCCCCCCN(CCCCCCCCCCCC)CCCN1CCN(CCCNP(=O)(OCCCCCCCC(=O)OC(CC)CCCCCCCC)OCCCCCCCC(=O)OC(CC)CCCCCCCC)CC1 (stereo not drawn) [PL32]	A (A: ≥2)	A (A: ≥2)	expressed	–	–	–	–	–
CCCCCCCCCCCCN(CCCCCCCCCCCC)CCCN1CCN(CCCNP(=O)(OCC(CCCCCC)CCCCCCCC)OCC(CCCCCC)CCCCCCCC)CC1 (stereo not drawn) [PL33]	A (A: ≥2)	A (A: ≥2)	expressed	–	–	–	–	–
CCCCCCCCCCC(CCCCCCCCCC)CN(CCCN1CCN(CCCNP(=O)(OCCCCCCCC(=O)OC(CCCCCCCC)CCCCCCCC)OCCCCCCCC(=O)OC(CCCCCCCC)CCCCCCCC)CC1)CC(CCCCCCCCCC)CCCCCCCCCC [PL36]	C (C: ≥0.1 and <1)	–	–	C (C: ≥0.1 and <1)	–	–	–	–
CCCCCCCCCCC(CCCCCCCCCC)CNCCCN1CCN(CCCNP(=O)(OCCCCCCCC(=O)OC(CCCCCCCC)CCCCCCCC)OCCCCCCCC(=O)OC(CCCCCCCC)CCCCCCCC)CC1 [PL41]	A (A: ≥2)	A (A: ≥2)	expressed	C (C: ≥0.1 and <1)	–	–	–	–
CCCCC/C=C\C/C=C\CCCCCCCCOP(=O)(NCCCN1CCN(CCCNCC(CCCCCC)CCCCCCCC)CC1)OCCCCCCCC/C=C\C/C=C\CCCCC (stereo not drawn) [PL44]	C (C: ≥0.1 and <1)	C (C: ≥0.1 and <1)	–	C (C: ≥0.1 and <1)	–	–	–	–
CCCCCCCCC(CCCCCC)CNCCCN1CCN(CCCNP(=O)(OCC(CCCCCC)CCCCCCCC)OCC(CCCCCC)CCCCCCCC)CC1 (stereo not drawn) [PL45]	C (C: ≥0.1 and <1)	C (C: ≥0.1 and <1)	–	C (C: ≥0.1 and <1)	–	–	–	–
CCCCC/C=C\C/C=C\C/C=C\CCCCC(=O)OCCOP(=O)(NCCCN1CCN(CCCN(CCCCCCCCCCCC)CCCCCCCCCCCC)CC1)OCCOC(=O)CCCC/C=C\C/C=C\C/C=C\CCCCC [PL93]	A (A: ≥2)	–	–	–	A (A: ≥2)	–	–	superior to that of the control SM102
CCCCC/C=C\C/C=C\C/C=C\CCCCCOP(=O)(NCCCN1CCN(CCCN(CCCCCCCCCCCC)CCCCCCCCCCCC)CC1)OCCCCC/C=C\C/C=C\C/C=C\CCCCC [PL94]	A (A: ≥2)	–	–	–	A (A: ≥2)	–	–	superior to that of the control SM102
CCCCCCCCCCCCN(CCCCCCCCCCCC)CCCN1CCN(CCCNP(=O)(OCCC(C)CCCC(C)CCCC(C)CCCC(C)C)OCCC(C)CCCC(C)CCCC(C)CCCC(C)C)CC1 (stereo not drawn) [PL95]	A (A: ≥2)	–	–	–	A (A: ≥2)	–	–	superior to that of the control SM102
CCCCCCCCCCCCN(CCCCCCCCCCCC)CCCN1CCN(CCCNP(=O)(OCCOC(=O)CC(C)CCCC(C)CCCC(C)CCCC(C)C)OCCOC(=O)CC(C)CCCC(C)CCCC(C)CCCC(C)C)CC1 (stereo not drawn) [PL96]	C (C: ≥0.1 and <1)	–	–	–	C (C: ≥0.1 and <1)	–	–	–
CCCCCCCCCCCCN(CCCCCCCCCCCC)CCCN1CCN(CCCNP(=O)(OCCCCCCCC(=O)OC(C)CC(=O)OCC)OCCCCCCCC(=O)OC(C)CC(=O)OCC)CC1 (stereo not drawn) [PL97]	C (C: ≥0.1 and <1)	–	–	–	C (C: ≥0.1 and <1)	–	–	–
CCCCC/C=C\C/C=C\CCCCCCCCOP(=O)(NCCCN1CCN(CCCN(CCCCCCCCCCCC)CCCCCCCCCCCC)CC1)OCCCCCCCC(=O)OC(CC)CCCCCCCC (stereo not drawn) [PL103]	A (A: ≥2)	A (A: ≥2)	expressed	–	–	–	–	–
